This is an account of results in ChEMBL document CHEMBL3124785, “Discovery of 2-(1H-indazol-1-yl)-thiazole derivatives as selective EP(1) receptor antagonists for treatment of overactive bladder by core structure replacement” (Bioorg Med Chem Lett, 2014).

Data set [1] can be described thus: Solubility of the compound at pH 6.8. The data set is classed as physicochemical. As to conditions: buffer.
Data set [2] is described as follows: Oral bioavailability in rat at 10 mg/kg. The class given is ADME, organism-based. As to conditions: in vivo.
Data set [3] in a line: Solubility of the compound in water. The data set is classed as physicochemical.
Data set [4] is described as follows: AUC (0 to infinity) in rat at 10 mg/kg, po. The class given is ADME, organism-based. More on the design: time infinity, dose 10 mg/kg, route oral. The settings on record: plasma.
Data set [5] is described as follows: Cmax in rat at 10 mg/kg, po. The class given is ADME, organism-based. More on the design: dose 10 mg/kg, route oral. As to conditions: in vivo.
Data set [6] is described as follows: Apparent permeability in MDCK cells. The class given is ADME, cell-based, Canis lupus familiaris. As to conditions: dog.

The structures appear in SMILES notation. Values after ≈ are worked out from the molar mass of the structure shown.

Turning to `O=C(O)c1csc(-n2nc(-c3ccccc3)c3ccc(C(F)(F)F)cc32)n1`, the solubility in data set [1] is 123 µg/mL (≈ 316 µM); in data set [3], 37 µg/mL (≈ 95 µM). Further, the bioavailability in data set [2] was found to be 31%. In addition, the AUC(0-inf) in data set [4] came to 9.27 µM·h. In data set [5], this molecule came in with a peak concentration (Cmax) of 5.34 µM. For the same molecule, in data set [6], the Papp was 17.8 ×10⁻⁶ cm/s.

The term solubility denotes the dissolved amount per volume that the medium holds. The term bioavailability denotes dose-corrected exposure relative to a reference, in per cent. Low readings indicate little systemic uptake, high ones much systemic uptake. For orientation: AUC(0-inf) means the area under the concentration-time curve extrapolated to infinity. High values mean more exposure, low ones less exposure. Usually Cmax stands for the highest concentration seen after dosing. Broadly, the Papp is a coefficient for how fast a substance crosses the barrier.
